Assay results reported in US9745318B2, “Fluorescent red emitting functionalizable calcium indicators” (PARIS SCIENCES ET LETTRES—QUARTIER LATIN, priority 2013, dated 2017).
“And” between values parts separate entries of the source, which are not always exact repeats. Identical values can stand only once. Like-named read-outs stand apart in the source and are kept apart here. Values belong to the molecule of their own block, whether it stands above or below them.

Experiments:
[1] = Fluorimetric titration against Ca2+ (cuvette calibration, Hill fit); type: binding; settings: for Kd: 100 mM KCl, 30 mM MOPS, pH 7.2, Hill fit
Description: All the solvents were of analytical grade. Chemicals were purchased from commercial sources. ^1H-NMR and ^13C-NMR were measured on a Bruker avance 111-300 MHz spectrometer with chemical shifts reported in ppm (TMS as internal standard). Mass spectra were measured on a Focus GC/DSQ II spectrometer (ThermoScientific) for IC and an API 3000 spectrometer (Applied Biosystems, PE Sciex) for ES. All pH measurements were made with a Mettler Toledo pH-Meter. Fluorescence spectra were recorded on a JASCO FP-8300 spectrofluorometer. Absorption spectra were determined on a VARIAN CARY 300 Bio UV-Visible spectrophotometer. All measurements were done at a set temperature of 25° C. The purity of the dyes were checked by RP-HPLC C-18, eluant: ACN 0.1% TFA/Water 0.1% TFA, method: 20/80 to 100/0 within 20 min then 100/0 for 10 min. detection at λAbs=254 nm. The apparent dissociation constant for calcium (Kd Ca^2+) was measured with a calcium calibration buffer kit from Invitrogen.
A fluorimetric titration of Ia-1 (5 μM) against Ca^2+ in a buffer containing (in mM) 100 KCl and 30 MOPS (pH 7.2) was performed.
A fluorimetric titration of Ia-1-Dextran-6000 conjugate against Ca^2+ in a buffer containing (in mM) 100 KCl and 30 MOPS (pH 7.2) was also conducted.
A fluorimetric titration of Ic-1 and Ic-2 against Ca^2+ in a buffer containing (in mM) 100 KCl and 30 MOPS (pH 7.2) was also conducted. […] The normalised fluorimetric titrations against Ca^2+ of Ia-1, Ic-1 and Ic-2 are represented in FIG. 13.

[2] = in absolute ethanol; cited from earlier work
[3] = Determination of fluorescence quantum yield; type: physicochemical; settings: rhodamine 101 as reference standard
Description: The quantum yields φ of Ia-1 were calculated from the slope of the integrated spectral emission (545 to 700 nm) of Ia-1 in the presence (2 mM) or absence (0 mM, 10 mM EGTA) of Ca^2+ vs. absorbance at 535 nm using rhodamine 101 (φ=1.0 in absolute ethanol) as a reference standard. A solvent correction was applied for the comparison of the fluorescence quantum yields of Ia-1 and rhodamine 101. The quantum yields φ were calculated using the following equation where φ is the quantum yield, s is the value of the observed slope and η is the refractive index of the solvent used.
[formula] • The calculations gave: φCalcium free=0.0089 • φCa2+=0.4541 II.4. Two-Photon Excitation of Compound Ia-1

[4] = Two-photon excitation, fluorescence intensity vs. excitation power; type: physicochemical
Description: Experiments of two-photon excitation of Ia-1 were conducted. Results are represented on FIG. 8. The power function fit to the data gives a power of 1.92±0.10—within one SD of 2.0, as expected for two-photon excitation evidencing that the measured fluorescence was indeed two-photon excited.

Purkinje cells = experiment: High-speed random access two-photon microscopy with climbing fiber stimulation in cerebellar slices; type: cell-based, mice; settings: exponential fit, n=59 spines from 7 cells, 300 μM in pipette
Description: For high speed imaging experiments, acute 260 μm thick slices were obtained from the cerebellar vermis of P60 mice and superfused with extracellular saline medium.
Climbing fiber stimulation-evoked transient [Ca^2+] changes in Purkinje cell spines were recorded at high acquisition rate (>2 kHz) by two-photon random-access microscopy, a technique is based on the use of acousto-optic deflectors (AODs), which enable selective scanning of defined points. Purkinje cells were recorded in current-clamp mode, using 2-3MΩ patch pipettes containing 300 μM Ia-1. Recordings were obtained by use of a Multiclamp 700B (Molecular Devices). Following the dialysis of Ia-1, Purkinje cells in slices were imaged under a 25× Leica water immersion objective (HCX IRAPO L 25×/0.95). […] A multifunction card (NI-PCI-MIO 16 E-4) was used to pass all the triggers necessary to synchronize the imaging and the electrophysiology and to control the piezo-electric device that moves the objective in Z. Fluorescence photons were detected by cooled AsGaP photomultipliers (H7421-40, Hamamatsu) discriminated and counted on a fast digital card.
During stimulation of the climbing fiber, fluorescence traces were acquired from multiple spines (range: 4 to 14) at rates over 1 kHz (range 2.2 to 4.8 kHz) (FIGS. 11e and 11f).

[5] = read-out: apparent dissociation constant for Ca2+

- Kd [1, 5]: 1700 nM
SMILES: [N-]=[N+]=NCCCCCCOc1cc(OCCOc2ccc(Cl)cc2N(CC(=O)O)CC(=O)O)c(N(CC(=O)O)CC(=O)O)cc1C1=c2cc3c4c(c2Oc2c1cc1c5c2CCCN5CCC1)CCC[N+]=4CCC3 [Ic-1]

SMILES: O=C(O)c1ccccc1C1=c2cc3c4c(c2Oc2c1cc1c5c2CCCN5CCC1)CCC[N+]=4CCC3.[Cl-] [rhodamine 101]
- quantum yield φ of reference standard [2]: 1.0

- Kd ([1]; read-out: apparent dissociation constant (KD) for Ca2+): 258 nM
- increase of fluorescence on binding [Ca2+] ([1]; cuvette calibration experiments): 50 fold
- quantum yield φ, calcium free ([3]; 0 mM Ca2+, 10 mM EGTA): 0.0089
- quantum yield φ, Ca2+ bound (maximum quantum yield) ([3]; 2 mM Ca2+): 0.4541 and 0.45
- power of the power function fit (fluorescence intensity vs. excitation power) [4]: 1.92±0.10
SMILES: [N-]=[N+]=NCCCCCCOc1cc(OCCOc2ccccc2N(CC(=O)O)CC(=O)O)c(N(CC(=O)O)CC(=O)O)cc1C1=c2cc3c4c(c2Oc2c1cc1c5c2CCCN5CCC1)CCC[N+]=4CCC3 [Ia-1]
- rise time τ of Ca2+ transients (Purkinje cells): 1.30 ± 0.26 ms

- Kd [1, 5]: 320 nM
SMILES: [N-]=[N+]=NCCCCCCOc1cc(OCCOc2cc(F)ccc2N(CC(=O)O)CC(=O)O)c(N(CC(=O)O)CC(=O)O)cc1C1=c2cc3c4c(c2Oc2c1cc1c5c2CCCN5CCC1)CCC[N+]=4CCC3 [Ic-2]
